Test results from ChEMBL document CHEMBL1149382 (J Med Chem, 2006).
In brackets after ≈: the same amount, converted by molar mass. Activity calls are given as the source filed them. The rule behind the calls is not given here.

Legend:
Trypanosoma cruzi [1] = experiment: Disruption of calcium homeostasis in Trypanosoma cruzi; format: functional, organism-based
Trypanosoma cruzi [2] = experiment: Antiprotozoal activity against Trypanosoma cruzi epimastigotes; format: functional, organism-based
Trypanosoma cruzi [3] = experiment: Antiprotozoal activity against Trypanosoma cruzi amastigotes; format: functional, organism-based
[4] = target: lanosterol synthase / oxidosqualene cyclase (Homo sapiens) (UniProt P48449); experiment: Inhibitory activity against oxidosqualene cyclase
[5] = target: T1, Farnesyl diphosphate synthase (Trypanosoma cruzi) (UniProt Q8WS26); experiment: Inhibitory activity against recombinant farnesyl diphosphate synthase at 50 uM
T1 sequence (whole entry): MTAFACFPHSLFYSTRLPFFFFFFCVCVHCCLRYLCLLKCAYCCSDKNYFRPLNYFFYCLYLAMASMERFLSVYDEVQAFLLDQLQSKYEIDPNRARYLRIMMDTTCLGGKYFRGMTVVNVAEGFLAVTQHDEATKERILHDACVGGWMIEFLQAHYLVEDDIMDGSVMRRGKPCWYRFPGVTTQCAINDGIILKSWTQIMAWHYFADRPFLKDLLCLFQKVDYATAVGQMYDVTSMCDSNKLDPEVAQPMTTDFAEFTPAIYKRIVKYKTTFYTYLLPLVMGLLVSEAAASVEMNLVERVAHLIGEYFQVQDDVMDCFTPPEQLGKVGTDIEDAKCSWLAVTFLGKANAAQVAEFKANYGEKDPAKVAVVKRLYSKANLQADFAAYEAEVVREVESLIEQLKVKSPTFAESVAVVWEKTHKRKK

Trypanosoma cruzi [6] = experiment: Ability to block ergosterol biosynthesis in Trypanosoma cruzi; format: functional, organism-based

Sequence of lanosterol synthase / oxidosqualene cyclase (Homo sapiens) (P48449 whole entry, looked up): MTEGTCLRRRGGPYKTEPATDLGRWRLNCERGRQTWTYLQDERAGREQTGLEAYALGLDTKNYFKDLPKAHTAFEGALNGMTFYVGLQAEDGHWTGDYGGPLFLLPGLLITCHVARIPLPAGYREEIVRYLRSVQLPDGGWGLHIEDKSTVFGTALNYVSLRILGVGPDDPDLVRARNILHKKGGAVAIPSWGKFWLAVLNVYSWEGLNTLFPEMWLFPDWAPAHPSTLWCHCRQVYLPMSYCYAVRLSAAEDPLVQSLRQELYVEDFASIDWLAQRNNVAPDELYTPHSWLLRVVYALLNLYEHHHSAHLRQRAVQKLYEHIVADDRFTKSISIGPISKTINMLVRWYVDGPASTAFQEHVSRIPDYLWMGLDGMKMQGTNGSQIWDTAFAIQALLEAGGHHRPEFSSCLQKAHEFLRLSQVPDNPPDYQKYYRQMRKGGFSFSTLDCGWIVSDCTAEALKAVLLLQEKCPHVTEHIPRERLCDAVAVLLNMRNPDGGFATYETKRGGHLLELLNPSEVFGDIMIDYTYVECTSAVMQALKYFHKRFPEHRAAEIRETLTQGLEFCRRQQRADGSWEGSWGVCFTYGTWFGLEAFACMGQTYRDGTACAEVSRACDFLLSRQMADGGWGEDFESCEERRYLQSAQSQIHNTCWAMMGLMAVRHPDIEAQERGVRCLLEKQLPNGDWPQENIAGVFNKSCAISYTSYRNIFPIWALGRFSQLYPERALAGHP

Row | Compound | Activity (Trypanosoma cruzi [1]) | MIC (Trypanosoma cruzi [2]) [µM] | MIC (Trypanosoma cruzi [3]) [µM] | IC50 [4] | inhibition [5] | Activity (Trypanosoma cruzi [6]) | IC50 (Trypanosoma cruzi [2]) [nM] | IC50 (Trypanosoma cruzi [3]) [nM]
1 | CCCCc1oc2ccccc2c1C(=O)c1cc(I)c(OCCN(CC)CC)c(I)c1 [AMIODARONE] | Active | 20 (≈ 12.9 µg/mL) | 8 (≈ 5.16 µg/mL) | Active | inactive | Active |  | 
2 | CC[C@@H]([C@H](C)O)n1ncn(-c2ccc(N3CCN(c4ccc(OC[C@@H]5CO[C@@](Cn6cncn6)(c6ccc(F)cc6F)C5)cc4)CC3)cc2)c1=O [POSACONAZOLE] | Active | 0.02 (≈ 0.014 µg/mL) | 0.003 (≈ 0.0021 µg/mL) |  |  |  | 14 | 0.25
